# Columns and labels:
# Type in all cases: in vivo
# [1] = Descriptive sensory evaluation in sugar water (4% sucrose in drinking water); conditions: 5 ppm in sugar water (4% sucrose in drinking water), vs base solution
# Protocol: Sugar water (4% sucrose in drinking water) was prepared and used as a base solution. Different amounts of traumatic acid were added to the base solution and descriptive sensory evaluations were performed (Table 1).
# Sugar water (4% sucrose in drinking water) was prepared and used as a base solution. Traumatic acid and 3-dodecenedioic acid were added to the base solution and descriptive sensory evaluations were performed (Table 2).
# [2] = Descriptive sensory evaluation in sweetened milk (2% fat milk with 2% sucrose); conditions: 2 ppm of each acid in sweetened milk (2% fat milk with 2% sucrose), vs base
# Protocol: Sweetened milk (2% fat milk with 2% sucrose) was prepared and used as a base solution (“base”).
# [3] = Descriptive sensory evaluation of traumatic acid in different applications
# Protocol: Descriptive sensory evaluations were carried out using different amounts of traumatic acid in different applications.
# [4] = Comparison of sweetness and mouthfeel enhancement and off-flavor masking with analogs; conditions: 5 ppm, compared with mesaconic acid, glutaconic acid, trans-β-Hydromuconic acid, e-oct-4ene-1, 8-dioic acid
Structure (SMILES),Taste Evaluation [1],Taste Evaluation [2],Taste Evaluation ([3]; 40 ppm in 3% Sugar + 0.05% Citric Acid Water Solution),"Taste Evaluation ([3]; 40 ppm in Water, vs same application without traumatic acid)",sweetness and mouthfeel enhancement as well as off-flavor masking [4]
"O=C(O)CC=CCCCCCCCC(=O)O [3-Dodecenedioic acid, 3-dodecenedioic acid]",enhanced the sweetness and mouthfeel of sugar water,,,,
"O=C(O)CCCCCCCCC(=O)O [Sebacic Acid, sebacic acid]",,increased sweetness and mouthfeel of sweetened milk,,,
"O=C(O)/C=C/CCCCCCCCC(=O)O [Traumatic acid, traumatic acid]",enhanced the sweetness and mouthfeel of sugar water,increased sweetness and mouthfeel of sweetened milk,Fatty and oily,Fatty and oily,exhibited the strongest and the longest-lasting effect

# Source: patent US20220015404A1, “TRAUMATIC ACID COMPOSITIONS AND METHODS FOR TASTE MODULATION” (INTERNATIONAL FLAVORS & FRAGRANCES INC., priority 2018, published 2022)
